Consider 13 compounds from PubChem BioAssay (NCI).

Holding throughout (assay): DTP human tumour cell line panel, 48 h
Experiment [1] relates to HS 578T breast.
Experiment [2] concerns NCI/ADR-RES ovarian.
Experiment [3] has as its system HCC-2998 colon.
The test system of experiment [4] is K-562 leukemia.
For experiment [5], the system named is HCT-15 colon.
Experiment [6] has as its system M14 melanoma.
Experiment [7] has as its system NCI-H522 lung.
Experiment [8] relates to SR leukemia.
Experiment [9] relates to U251 CNS.
Experiment [10] deals with KM12 colon.

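Dose response: 5 concentrations. Exposure: 48 h. Format: 96-well plates. Endpoint: linear interpolation; highest concentration if not reached. TGI: total growth inhibition.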 Bounds are passed on as bounds.

What is called TGI is the concentration at which net growth stops. The low end stands for greater sensitivity of the cells, the high end for lower sensitivity of the cells. For the compound `CC1CC2OC(=N)C1(C#N)C2(C#N)C#N` (stereo not given), the TGI in experiment [1] was over 100 µM; in experiment [2], over 100 µM; in experiment [3], 34.4 µM; in [4], 56.2 µM; in [5], 30.6 µM; in [6], over 100 µM. Besides, the TGI is 37.8 µM in experiment [7], over 100 µM in experiment [8], over 100 µM in experiment [9] and over 100 µM in experiment [10].

Consider `COc1ccc2c(-c3csc(-c4c[nH]c5ccccc45)n3)c[nH]c2c1`, for which the TGI in experiment [1] is over 78.7 µM; in experiment [2] it was over 81.6 µM; in [3], 30.4 µM; in experiment [4], over 22.1 µM; in [5] it was over 100 µM; in [6], 53.1 µM. In addition, the TGI in [7] is 25.4 µM; in experiment [8], over 100 µM; in experiment [9], 29.8 µM; in experiment [10], 14.8 µM.

In the case of `COc1cc(C)c(S(=O)(=O)N(CCCN)OCCCN)c(C)c1C`, the total growth inhibition concentration (TGI) is 65.2 µM in [1]; over 100 µM in experiment [2]; 57.1 µM in experiment [3]; 31.7 µM in experiment [4]; over 100 µM in experiment [5]; 65.2 µM in experiment [6]. Besides, the TGI was 51.7 µM in [7], 38.6 µM in [8], over 100 µM in experiment [9] and over 100 µM in experiment [10].

Regarding `CO/C=C(/C(=O)OC)c1ccccc1[C@H]1C[C@@H]1c1ccccc1`, the TGI in experiment [1] was over 100 µM; in experiment [2], 68.2 µM; in [3], 76.2 µM; in experiment [4], over 100 µM; in experiment [5], 86.8 µM; in experiment [6], 68.8 µM. The total growth inhibition concentration (TGI) in experiment [7] was 32 µM; in experiment [8], 76.5 µM; in [9] it was over 100 µM; in experiment [10] it was 49 µM.

With `C=C1CC2C[C@H](OS(=O)(=O)c3ccc(C)cc3)C(C1)N2C` (stereo not given in full), the TGI in experiment [1], in experiment [2], in [3], in experiment [4], in experiment [5] and in [6] was over 100 µM in each case. Besides, the TGI in experiment [7], in [8], in experiment [9] and in experiment [10] was over 100 µM in each case.

As for `CCN(CC)CCC1(C(=O)OC)SCCc2ccc(C)cc21` (stereo not given), the TGI in experiment [1], in experiment [2], in experiment [3], in experiment [4], in [5] and in [6] was over 100 µM throughout. The TGI in experiment [7], in [8], in experiment [9] and in [10] was over 100 µM in each case.

Regarding `CC(=O)c1c2c(cc3c1CCC3)CCC2`, the total growth inhibition concentration (TGI) in [1], in experiment [2], in experiment [3], in experiment [4], in experiment [5] and in experiment [6] was over 100 µM in each case. The TGI in experiment [7], in experiment [8], in [9] and in [10] was over 100 µM in each case.

As for `[O-][n+]1cc(SCc2ccccc2)ncc1SCc1ccccc1`, the TGI in [1], in [2], in [3], in experiment [4], in experiment [5] and in experiment [6] was over 10 µM throughout. Also, the TGI in experiment [7], in [8], in experiment [9] and in [10] was over 10 µM in each case.

Consider `NC(=O)c1ccc(S(=O)(=NS(=O)(=O)c2ccccc2)c2ccc(C(N)=O)cc2)cc1`, for which the TGI in [1], in experiment [2], in experiment [3], in experiment [4], in experiment [5] and in experiment [6] was over 100 µM in each case. Also, the TGI in [7], in experiment [8], in experiment [9] and in experiment [10] was over 100 µM throughout.

As to `CC(NC1=NCCO1)c1ccco1` (stereo not given), the TGI in experiment [1], in experiment [2], in experiment [3], in experiment [4], in [5] and in [6] was over 100 µM throughout. For the same compound, the TGI was over 100 µM in experiment [7], over 100 µM in experiment [8], over 100 µM in [9] and 90.2 µM in experiment [10].

For `O=C1CCc2c(sc3ncnc(Nc4cccc(Br)c4)c23)C1`, the TGI in [1] is over 79.8 µM; in [2], over 26.7 µM; in [3], 15 µM; in experiment [4], over 22.7 µM; in experiment [5], 12.4 µM; in [6], 13.9 µM. The TGI was found to be 6.17 µM in [7], 7.82 µM in experiment [8], 9.02 µM in [9] and 12.3 µM in experiment [10].

As to `Cn1c(-c2cccs2)cc(-c2ccsc2)c1-c1ccsc1`, the total growth inhibition concentration (TGI) in experiment [1], in experiment [2], in [3], in experiment [4], in [5] and in experiment [6] was over 100 µM throughout. Also, the TGI in experiment [7], in experiment [8], in [9] and in experiment [10] was over 100 µM in each case.

On to `COc1ccc(C(OCC2OC(n3ccc(Oc4c(F)c(F)c(F)c(F)c4F)nc3=O)CC2OP(OCCC#N)N(C(C)C)C(C)C)(c2ccccc2)c2ccc(OC)cc2)cc1` (stereo not given), for which the TGI in [1], in experiment [2], in experiment [3], in experiment [4], in experiment [5] and in experiment [6] was over 100 µM in each case. Besides, the TGI in experiment [7], in experiment [8], in experiment [9] and in [10] was over 100 µM in each case.
